From PMC5302928, “[^64Cu]XYIMSR-06: A dual-motif CAIX ligand for PET imaging of clear cell renal cell carcinoma” (Oncotarget, 2016)
Where “and” joins values, the source holds several entries; their conditions need not be identical. Equal entries are not always repeated.

Test system: CAIX-expressing SK-RC-52 ccRCC tumor xenografts
Assay: Biodistribution of [Al18F]XYIMSR-04 in mice bearing SK-RC-52 xenografts
Assay type: in vivo
Details: 1 h
Protocol: The resulting Mice bearing SK-RC-52 xenografts within the solution was heated at 110 °C for 30 min. 0.6 mg of lower left flank were injected intravenously with 740 [Al19F]XYIMSR-04 was obtained as white crystal, after kBq (20 μCi) of [Al18F]XYIMSR-04 in 200 μL of PBS.
HPLC purification. Yield is 61 %. HPLC condition: At specific 1 hour time point mentioned in the paper, column Phenomenex, Luna 10 x 250 mm, 10 µ. 20/80/ mice (n = 5) were sacrificed by cervical dislocation and TFA MeCN/H O/TFA, flow 4 mL/min. Product was the blood was immediately collected by cardiac puncture. […]
eluded at 35.5 min. MS, calculated for C H AlFN N Heart, lungs, pancreas, spleen, fat, brain, muscle, small […]
aO S [M+Na] : 1426.4759; Found: 1426.4777. intestines, liver, bone, stomach, kidney, urinary bladder, […]
and tumor were collected. Each organ was weighed and Radiosynthesis the tissue radioactivity was measured with an automated gamma counter (1282 Compugamma CS, Pharmacia/
For convenience, Na18F in saline purchased from LKBNuclear, Inc., Mt. Waverly, Vic. Australia). The PETNET (Hackensack, NJ) was directly applied with to percentage of injected dose per gram of tissue (% ID/g) the synthesis with a slightly modified protocol (2). Due to was calculated by comparison with samples of a standard […]
reaction condition. corrected for radioactive decay.
Radiosynthesis of [Al18F]XYIMSR-04. 400μg of Data were expressed as mean ± standard deviation XYIMSR-04 in 200 μL water/Ethanol 1:1 was added to (SD). Prism software (GraphPAD, San Diego, California) 1 mL of Na18F in 0.9% saline containing 4.6-14.0 mCi was used to determine statistical significance. Statistical activity. To this mixture, 20 μL of 2 mM AlCl3/NaOAc significance was calculated using a paired t test. P-values solution and 200 μL of ethanol were added. The reaction < 0.0001 were considered significant. was kept at 105 °C for 20 min, then diluted to 2.0 mL The biodistribution data at 1 h is shown below. with water and loaded onto a preparative HPLC column The tumor uptake is 14.40%ID/g, with tumor-to –blood, for purification. Retention times for the radiolabeled -muscle and –kidney of 22.1, 9.74 and 0.28. compound, [Al18F]XYIMSR-04, and starting material, XYIMSR-04, were optimized to the point of baseline Imaging separation, with [Al18F]XYIMSR-04 eluting first.
[Al18F]XYIMSR-04 was obtained a radiochemical yield Mice harboring subcutaneous SK-RC-52 tumors of 4.3% (n=3) in specific radioactivity of 57-92 Ci/mmol with the lower left flank were injected with 7.4 MBq (200 in 1 hour. HPLC conditions: Phenomenex, Luna 10 x 250 μCi) of [Al18F]XYIMSR-04 in 250 µL of PBS (pH = 7.0) mm, 10μ. 20/80/0.1 MeCN/H2O/TFA, flow 4 mL/min. intravenously (tail vein). Anesthesia was then induced Product eluted at 35.5 min, while starting material eluted with 3% isofluorane and maintained at 2% isoflurane. […]
(also on this page, place not known: www.impactjournals.com/oncotarget/ Oncotarget, Supplementary Materials 2016 ([Al19F]XYIMSR-04). AlCl 3 2O/TFA, 57H79AlFN15N aO20S2 +: Na 18F [Al 18F]XYIMSR-04. XYIMSR-04 Na 18F AlCl 3/NaOAc [Al 18F]XYIMSR-04, [Al 18F]XYIMSR-04 MeCN/H 2O/TFA, [Al 19F]XYIMSR-04 [Al 18F]XYIMSR-04) […]

`CC(CCC(=O)N[C@@H](CC(=O)N[C@@H](CC(=O)N[C@@H](CCCCn1cc(CCCC(=O)Nc2nnc(S(N)(=O)=O)s2)nn1)C(=O)NCCOCCOCCNC(=O)CN1CCN2CCN(CC1)CC(=O)[O][Al]([18F])[O]C(=O)C2)C(=O)O)C(=O)O)(c1ccc(O)cc1)c1ccc(O)cc1` [[Al^18F]XYIMSR-04] was tested, and the Bladder uptake was 20.12 ± 12.51 %ID/g, the Blood uptake was 0.65 ± 0.11 %ID/g and the Bone uptake was 1.91 ± 1.39 %ID/g. For the same compound, the Brain uptake was 0.66 ± 0.04 %ID/g, the Fat uptake was 1.54 ± 0.25 %ID/g and the Heart uptake was 5.03 ± 0.51 %ID/g. The “Kidney (kid) uptake” value was 50.84 ± 2.65 %ID/g, the Liver uptake was 5.55 ± 0.91 %ID/g and the Lung uptake was 34.07 ± 5.85 %ID/g. The “Muscle (mm) uptake” value was 1.74 ± 0.58 %ID/g, the Pancreas uptake was 3.47 ± 0.16 %ID/g and the Sm. intestine uptake was 9.59 ± 1.04 %ID/g. It also gave a Spleen uptake of 0.54 ± 0.18 %ID/g, a Stomach uptake of 21.62 ± 1.85 %ID/g and a Tumor uptake of 14.4 ± 2.2 %ID/g. For the same compound, the “Tumor/kid (kidney) ratio” value was 0.28 ± 0.03, the “Tumor/mm (muscle) ratio” value was 9.7 ± 2.9 and the Tumor/Blood ratio (listed as [Al18F]XYIMSR-04) was 22.1 and 22.1 ± 1.5. For the same compound, the “Tumor/kid (kidney) ratio” value (listed as [Al18F]XYIMSR-04) was 0.28 and the “Tumor/mm (muscle) ratio” value (listed as [Al18F]XYIMSR-04) was 9.74.
